Tests used:
[1] = clinical trials discontinued; cited from earlier work
SK-BR3 cells = test: Anti-proliferative effect / cytotoxicity on SK-BR-3 breast tumor cells (crystal violet, FIG. 4); type: cell-based, human
Protocol: SK-BR-3 human breast carcinoma cells were from The American Type Culture Collection (Rockville, Md.). […] SK-BR-3 cells were cultured in high glucose DMEM:Ham's F-12 (50:50) supplemented with 10% heat-inactivated fetal bovine serum and 2 mM 1-glutamine (all from GIBCO/BRL, Grand Island, N.Y.).
Cells were plated at the following densities in 96-well microtiter culture plates: 2×10^4 per well for SK-BR-3; 10^4 per well for HMEC, SAEC and NHEK; and 3.5×10^4 per well for human hepatocytes (pre-plated on collagen-coated plates by In Vitro Technologies) and allowed to adhere overnight in the incubator (37° C., 5% CO2). […] After a 3 day incubation, the media were removed, the cell monolayers washed once with PBS and stained with crystal violet dye (0.5% crystal violet, 20% methanol).
For all experiments, after removal of the crystal violet dye, plates were allowed to air-dry overnight. The dye was then eluted with 0.1 M sodium citrate:ethanol (50:50), pH 4.2 and the plates read in an SLT 340 ATC plate-reader at a wavelength of 540 nm. Each treatment group consisted of 4 replicates and the data are represented as mean O.D.540+/− standard error or relative to cell proliferation as compared to untreated control cells (mean+/−s.e.).

Compound | adverse effects in clinical trials [1] | cell growth inhibition (SK-BR3 cells)
COc1cc2cc(c1Cl)N(C)C(=O)C[C@H](OC(=O)[C@H](C)N(C)C(C)=O)[C@]1(C)O[C@H]1[C@H](C)[C@@H]1C[C@@](O)(NC(=O)O1)[C@H](OC)/C=C/C=C(\C)C2 [maytansine] | peripheral neuropathy | 
RITUXAN®: control, unrelated monoclonal antibody RITUXAN® |  | did not inhibit cell growth

Reference: patent US20090304689A1, “METHODS FOR THE IDENTIFICATION OF POLYPEPTIDE ANTIGENS ASSOCIATED WITH DISORDERS INVOLVING ABERRANT CELL PROLIFERATION AND COMPOSITIONS USEFUL FOR THE TREATMENT OF SUCH DISORDERS” (priority 2001, published 2009)
